Patent US8846571B2, “Herbicidal compositions containing benzoylpyrazole compounds” (priority 2008, dated 2014)
Where two headings read alike, the source gives them in different places.

Experiments:
prickly sida = test: Foliar treatment pot test (Example 1), visual growth inhibition of prickly sida; format: in vivo, prickly sida (Side spinosa L.); details: read-out: Growth inhibition rate (%) Measured value
Source text: (§1) When the herbicidal activity in a case where two active ingredients are combined, is larger than the simple sum of the respective herbicidal activities of the two active ingredients (the expected activity), it is called a synergistic effect. The activity expected by the combination of two active ingredients can be calculated as follows (Colby S. R., “Weed”, vol. 15, p. 20-22, 1967). E=α+β−(α×β÷100) where
(§2) Upland field soil was put into a 1/1,000,000 hectare pot, and seeds of various plants were sown. When the respective plants reached predetermined leaf stage, herbicidal compositions in predetermined amounts were diluted with water in an amount corresponding to 300 L/ha and applied for foliar treatment by a small sprayer.
(§3) Further, in accordance with the above Colby's formula, the growth inhibition rate (calculated value) was calculated. In Tables, with respect to the compound Q, Compound Nos. in Table 1 are described, and with respect to other herbicidal compounds, common names are described.

[1] = Foliar treatment pot test (Example 1), plant name misprinted as 'days after treatment'; format: in vivo; details: 4.0-5.0 leaf stage
Source text: as §1, §2, §3

crabgrass = test: Foliar treatment pot test (Example 1), visual growth inhibition of crabgrass; format: in vivo
Source text: as §1, §2, §3

velvetleaf = test: Foliar treatment pot test (Example 1), visual growth inhibition of velvetleaf; format: in vivo, velvetleaf (Abutilon theophrasti MEDIC.)
Source text: as §1, §2, §3

various plants = test: Foliar treatment pot test (Example 1) on various plants; format: in vivo; details: Setaria, 336 h, fiant foxtail, 4.0-5.0 leaf stage, 14 days after treatment, read-out: Growth inhibition rate (%) of fiant foxtail, Measured value
Source text: as §1, §2, §3

[2] = 504 h, 21 days after treatment, read-out: Growth inhibition rate (%) Measured value

Q: For CCNc1nc(Cl)nc(NC(C)C)n1 [Atrazine, atrazine], which inhibition at 63 g/ha (prickly sida; 504 h, prickly sida 3.0-3.3 leaf stage, 21 days after treatment, 63 g/ha) is on record?
A: The inhibition at 63 g/ha was 30%.

Q: What about the inhibition at 125 g/ha (prickly sida; 504 h, prickly sida 3.0-3.3 leaf stage, 21 days after treatment, 125 g/ha) of the same compound?
A: Its inhibition at 125 g/ha is 45%.

Q: What about the inhibition at 125 g/ha [1, 2] of the same compound?
A: Its inhibition at 125 g/ha is 0%.

Q: With COc1c(Cl)ccc(Cl)c1C(=O)O [Dicamba, dicamba] as the compound, how does the inhibition at 200 g/ha ([1]; 336 h, 14 days after treatment, 200 g/ha, read-out: Growth inhibition rate (%) Measured value) read?
A: The inhibition at 200 g/ha was 0%.

Q: With N.O=C(O)CNCP(=O)(O)O [Glyphosate-ammonium, glyphosate-ammonium] as the compound, how does the “Growth inhibition rate (%) Measured value” (crabgrass; crabgrass 5.0-5.5 leaf stage, 21 days after treatment, 100 g/ha) read?
A: Its value is 10%.

Q: With COC(=O)c1c(Cl)nn(C)c1S(=O)(=O)NC(=O)Nc1nc(OC)cc(OC)n1 [Halofulfuron-methyl] as the compound, how does the “Growth inhibition rate (%) of crabgrass, Measured value” (crabgrass; 5.0-5.5 leaf stage, 14 days after treatment, 20 g/ha) read?
A: Its value is 0%.

Q: For CS(=O)(=O)c1ccc(C(=O)C2C(=O)CCCC2=O)c([N+](=O)[O-])c1 [Mesotrione], which inhibition at 15 g/ha ([1]; 504 h, 21 days after treatment, 15 g/ha, read-out: Growth inhibition rate (%) of days after treatment, Measured value) is on record?
A: The inhibition at 15 g/ha was 5%.

Q: Which “Growth inhibition rate (%) Measured value” (velvetleaf; velvetleaf 4.0-4.3 leaf stage, 22 days after treatment, 3.75 g/ha) does the source give for CCOC(=O)OC(C)Oc1c(C(=O)c2ccc(S(C)(=O)=O)c(OCCOC)c2C)cnn1C (stereo not drawn) [NO. 2] here?
A: The value was 0%.

Q: With CCn1ncc(C(=O)c2ccc(S(C)(=O)=O)c(OCCOC)c2C)c1OC(C)OC(=O)OC (stereo not drawn) [NO. 4, 1-(1-ethyl-4-(3-(2-methoxyethoxy)-2-methyl-4-(methylsulfonyl)benzoyl)-1H-pyrazol-5-yloxy)ethyl methyl carbonate] as the compound, how does the inhibition at 7 g/ha (various plants; 7 g/ha) read?
A: The inhibition at 7 g/ha was 75%.

Q: And the inhibition at 75 g/ha (prickly sida; 480 h, prickly sida 1.5-2.4 leaf stage, 20 days after treatment, 75 g/ha)?
A: Its inhibition at 75 g/ha is 55%.

Q: What about the inhibition at 5 g/ha (crabgrass; Digitaria sanguinalis, foliar, 336 h, crabgrass 3.5-4.3 leaf stage, 14 days after treatment, 5 g/ha, read-out: Growth inhibition rate (%) Measured value) of the same compound?
A: The inhibition at 5 g/ha was 90%.

Q: And the inhibition at 15 g/ha (crabgrass; Digitaria sanguinalis, foliar, 552 h, 4.0-5.1 leaf stage, 23 days after treatment, 15 g/ha, read-out: Growth inhibition rate (%) of crabgrass, Measured value)?
A: The inhibition at 15 g/ha was 85%.

Q: And the inhibition at […] ([1]; 504 h, 21 days after treatment, 3.5 g/ha, read-out: Growth inhibition rate (%) of days after treatment, Measured value)?
A: Its inhibition at […] is 40%.

Q: And the inhibition at 7 g/ha ([1]; 504 h, 21 days after treatment, 7 g/ha, read-out: Growth inhibition rate (%) of days after treatment, Measured value)?
A: The inhibition at 7 g/ha was 60%.

Q: And the “Growth inhibition rate (%) of velvetleaf, Measured value” (velvetleaf; 3.0-4.0 leaf stage, 14 days after treatment, 15 g/ha)?
A: The value was 80%.

Q: What about the inhibition at 15 g/ha (velvetleaf; Abutilon theophrasti, foliar, 336 h, 3.0-4.0 leaf stage, 14 days after treatment, 15 g/ha, read-out: Growth inhibition rate (%) of velvetleaf, Measured value) of the same compound?
A: Its inhibition at 15 g/ha is 73%.

Q: And the inhibition at 5 g/ha (velvetleaf; Abutilon theophrasti, foliar, 504 h, velvetleaf 3.1-3.4 leaf stage, 21 days after treatment, 5 g/ha, read-out: Growth inhibition rate (%) Measured value)?
A: Its inhibition at 5 g/ha is 94%.

Q: What about the inhibition at 15 g/ha (velvetleaf; Abutilon theophrasti, foliar, 504 h, velvetleaf 3.8-4.4 leaf stage, 21 days after treatment, 15 g/ha, read-out: Growth inhibition rate (%) Measured value) of the same compound?
A: Its inhibition at 15 g/ha is 75%.

Q: What about the inhibition at 15 g/ha (velvetleaf; Abutilon theophrasti, foliar, 528 h, velvetleaf 3.3-3.8 leaf stage, 22 days after treatment, 15 g/ha, read-out: Growth inhibition rate (%) Measured value) of the same compound?
A: The inhibition at 15 g/ha was 89%.

Q: And the inhibition at 7 g/ha (velvetleaf; Abutilon theophrasti, foliar, 552 h, 3.0-3.5 leaf stage, 23 days after treatment, 7 g/ha, read-out: Growth inhibition rate (%) of velvetleaf, Measured value)?
A: Its inhibition at 7 g/ha is 75%.

Q: What about the inhibition at 15 g/ha (velvetleaf; Abutilon theophrasti, foliar, 552 h, 3.0 to 3.5 leaf stage, 23 days after treatment, 15 g/ha, read-out: Growth inhibition rate (%) of velvetleaf, Measured value) of the same compound?
A: Its inhibition at 15 g/ha is 93%.

Q: What about the inhibition at 15 g/ha (velvetleaf; Abutilon theophrasti, foliar, 576 h, 3.2-4.1 leaf stage, 24 days after treatment, 15 g/ha, read-out: Growth inhibition rate (%) of velvetleaf, Measured value) of the same compound?
A: Its inhibition at 15 g/ha is 93%.

Q: Which “Growth inhibition rate (%) Measured value” (crabgrass; crabgrass 4.4-5.0 leaf stage, 13 days after treatment, 200 g/ha) does the source give for CCOCCN(C(=O)CCl)C(=C(C)C)c1ccccc1 [Pethoxamid, pethoxamid, reference compound] here?
A: The value was 0%.

Q: And the “Growth inhibition rate (%) Measured value” (velvetleaf; velvetleat 3.3-4.2 leaf stage, 13 days after treatment, 200 g/ha)?
A: The value was 0%.

Q: For CCCCCCCCSC(=O)Oc1cc(Cl)nnc1-c1ccccc1 [Pyridate, pyridate, reference compound], which inhibition at 100 g/ha (various plants; 100 g/ha) is on record?
A: Its inhibition at 100 g/ha is 0%.

Q: What about the inhibition at 100 g/ha ([1]; 504 h, 21 days after treatment, 100 g/ha, read-out: Growth inhibition rate (%) of days after treatment, Measured value) of the same compound?
A: Its inhibition at 100 g/ha is 0%.

Q: For CCc1cccc(C)c1N(C(=O)CCl)[C@@H](C)COC [S-Metolachlor, S-metolachlor], which “Growth inhibition rate (%) of crabgrass, Measured value” (crabgrass; 4.0-5.0 leaf stage, 14 days after treatment, 150 g/ha) is on record?
A: Its value is 0%.

Q: What about the “Growth inhibition rate (%) Measured value” (crabgrass; crabgrass 4.0-5.1 leaf stage, 21 days after treatment, 300 g/ha) of the same compound?
A: The value was 0%.

Q: What about the “Growth inhibition rate (%) Measured value” (crabgrass; crabgrass 5.0-6.0 leaf stage, 14 days after treatment, 800 g/ha) of the same compound?
A: Its value is 0%.

Q: And the “Growth inhibition rate (%) Measured value” (velvetleaf; velvetleaf 3.0-3.5 leaf stage, 21 days after treatment, 300 g/ha)?
A: Its value is 0%.

Q: For CCNc1nc(Cl)nc(NC(C)(C)C)n1 [Terbuthylazine, terbuthylazine], which inhibition at 250 g/ha ([1]; 192 h, 8 days after treatment, 250 g/ha, read-out: Growth inhibition rate (%) Measured value) is on record?
A: Its inhibition at 250 g/ha is 10%.

Q: What about the inhibition at 125 g/ha [1, 2] of the same compound?
A: Its inhibition at 125 g/ha is 0%.

Q: With COC(=O)c1sccc1S(=O)(=O)NC(=O)Nc1nc(C)nc(OC)n1 [Thifensulfuron-methyl] as the compound, how does the inhibition at 5 g/ha ([1]; 504 h, 21 days after treatment, 5 g/ha, read-out: Growth inhibition rate (%) of days after treatment, Measured value) read?
A: The inhibition at 5 g/ha was 0%.
